Laboratory results as given in ChEMBL document CHEMBL1122575, “Dependence of beta-lactamase stability on substructures within beta-lactam antibiotics” (J Med Chem, 1984).
Values after ≈ are worked out from the molar mass of the structure shown.

Columns and labels:
Escherichia coli [1] = test: Compound was evaluated for the antibacterial activity against Escherichia coli (RTEM+ organism); assay type: functional
Escherichia coli [2] = test: Compound was evaluated for the antibacterial activity against Escherichia coli with strain beta-Lactamase-negative (LAC-); assay type: functional
Staphylococcus aureus [3] = test: Relative hydrolysis rate (RHR) was evaluated against Staphylococcus aureus with strain PC1.; assay type: ADME, organism-based
Staphylococcus aureus [4] = test: Compound was evaluated for the antibacterial activity against Staphylococcus aureus with strain beta-Lactamase-negative (LAC-); assay type: functional
Staphylococcus aureus [5] = test: Compound was evaluated for the antibacterial activity against Staphylococcus aureus with strain beta-Lactamase-positive (LAC+); assay type: functional
Enterobacter cloacae [6] = test: Compound was evaluated for the antibacterial activity against Enterobacter cloacae with strain 233 (beta-Lactamase-positive (LAC+)); assay type: functional
Escherichia coli [7] = test: Compound was evaluated for the antibacterial activity against Escherichia coli (RTEM+ organism).; assay type: functional
Escherichia coli [8] = test: Compound was evaluated for the antibacterial activity against Escherichia coli with strain JC-S (beta-Lactamase-negative (LAC-)); assay type: functional
[9] = Relative hydrolysis rate (RHR) was evaluated against RTEM enzyme; assay type: ADME
Escherichia coli [10] = test: Compound was evaluated for the antibacterial activity against Escherichia coli with strain NIHJ (beta-Lactamase-negative (LAC-)); assay type: functional
Escherichia coli [11] = test: Compound was evaluated for the antibacterial activity against Escherichia coli (RTEM+organism) at 10e4/10e6 cfu; 0.8/3.1; assay type: functional
Escherichia coli [12] = test: Compound was evaluated for the antibacterial activity against Escherichia coli (RTEM-organism) at 10e4/10e6 cfu; 1.6/1.6; assay type: functional
[13] = Relative hydrolysis rate (RHR) was evaluated against K1 enzyme; assay type: ADME
Escherichia coli [14] = test: Compound was evaluated for the relative Vmax against Escherichia coli with strain 609 (beta-Lactamase-positive (LAC+); assay type: ADME, organism-based; settings: in vivo
[15] = Compound was evaluated for the relative Vmax against RTEM enzyme; assay type: ADME
Escherichia coli [16] = test: Compound was evaluated for the antibacterial activity against Escherichia coli (RTEM-organism) at 10e4/10e6 colony forming units; <0.05/0.1; assay type: functional
Klebsiella aerogenes [17] = test: Compound was evaluated for the antibacterial activity against Klebsiella aerogenes with strain K1+ at 10e4/10e6 colony forming units; 12.5/>100; assay type: functional
Klebsiella aerogenes [18] = test: Compound was evaluated for the antibacterial activity against Klebsiella aerogenes with strain K1- at 10e4/10e6 colony forming units; 0.05/0.1; assay type: functional
Escherichia coli [19] = test: Compound was evaluated for the antibacterial activity against Escherichia coli (RTEM+organism) at 10e4/10e6 colony forming units; 0.1/0.1; assay type: functional
Escherichia coli [20] = test: Compound was evaluated for the antibacterial activity against Escherichia coli (RTEM-organism) at 10e4/10e6 cfu; 0.2/0.4; assay type: functional
Escherichia coli [21] = test: Compound was evaluated for the antibacterial activity against Escherichia coli (RTEM+organism) at 10e4/10e6 cfu; 0.1/0.4; assay type: functional
Klebsiella aerogenes [22] = test: Compound was evaluated for the antibacterial activity against Klebsiella aerogenes with strain K1- at 10e4/10e6 cfu; 0.1/0.4; assay type: functional
Klebsiella aerogenes [23] = test: Compound was evaluated for the antibacterial activity against Klebsiella aerogenes with strain K1+ at 10e4/10e6 cfu; 0.2/0.8; assay type: functional
Staphylococcus aureus [24] = test: Relative hydrolysis rate (RHR) was evaluated against Staphylococcus aureus with the strain FS108; assay type: ADME, organism-based
Staphylococcus aureus [25] = test: Compound was evaluated for the antibacterial activity against Staphylococcus aureus with the strain 209P; assay type: functional
[26] = Compound was evaluated for the percentage remaining after 24 hr hydrolysis at a pH 7 at 37 degree Centigrade; settings: buffer
Escherichia coli [27] = test: Compound was evaluated for the antibacterial activity against Escherichia coli (RTEM+organism) at 10E6 colony forming units; assay type: functional
Escherichia coli [28] = test: Compound was evaluated for the relative Vmax against Escherichia coli with strain 609 (beta-Lactamase-positive (LAC+)); assay type: ADME, organism-based
Escherichia coli [29] = test: Compound was evaluated for the antibacterial activity against Escherichia coli with strain 609 (beta-Lactamase-positive (LAC+)); assay type: functional
Escherichia coli [30] = test: Compound was evaluated for the antibacterial activity against Escherichia coli with strain NIHJ (beta-Lactamase-negative (LAC-); assay type: functional
Escherichia coli [31] = test: Compound was evaluated for the antibacterial activity against Escherichia coli (RTEM+organism) at 10e4/10e6 cfu; 0.4/1.6; assay type: functional
Escherichia coli [32] = test: Compound was evaluated for the antibacterial activity against Escherichia coli (RTEM-organism) at 10e4/10e6 cfu; 0.1/0.2; assay type: functional
Klebsiella aerogenes [33] = test: Compound was evaluated for the antibacterial activity against Klebsiella aerogenes with strain K1- at 10e4/10e6 cfu; 0.2/0.2; assay type: functional
Klebsiella aerogenes [34] = test: Compound was evaluated for the antibacterial activity against Klebsiella aerogenes with strain K1+ at 10e4/10e6 cfu; 100/>100; assay type: functional
Escherichia coli [35] = test: Percentage zonal reduction was evaluated against Escherichia coli; assay type: functional
Staphylococcus aureus [36] = test: Percentage zonal reduction was evaluated against Staphylococcus aureus; assay type: functional
Enterobacter cloacae [37] = test: Compound was evaluated for the antibacterial activity against Enterobacter cloacae with the strains beta-Lactamase-positive (LAC+); assay type: functional
Providencia rettgeri = test: Compound was evaluated for the antibacterial activity against Providencia rettgeri with the strains beta-Lactamase-positive (LAC+); assay type: functional

CC(=O)NCCSC1=C(C(=O)O)N2C(=O)[C@@H](C(C)OS(=O)(=O)[O-])C2C1.[K+] (some centres undefined)
MIC (Escherichia coli [1]): 1.6 µg/mL | MIC (Escherichia coli [2]): 0.2 µg/mL

C[C@H]1[C@H](NC(=O)CSc2cc(Cl)nc(Cl)c2)C(=O)N1OS(=O)(=O)[O-].[K+]
RHR (Staphylococcus aureus [3]): 2.6 | MIC (Staphylococcus aureus [4]): 0.2 µg/mL | MIC (Staphylococcus aureus [5]): 6.3 µg/mL

CO[C@@]1(NC(=O)C(C(=O)O)c2ccc(O)cc2)C(=O)N2C(C(=O)O)=C(CSc3nnnn3C)COC21 (some centres undefined)
MIC (Enterobacter cloacae [6]): 0.2 µg/mL (≈ 0.384 µM) | MIC (Escherichia coli [7]): 0.4 µg/mL (≈ 0.769 µM) | MIC (Escherichia coli [8]): 0.2 µg/mL (≈ 0.384 µM)

Cn1nnnc1SCC1=C(C(=O)O)N2C(=O)C(NC(=O)C(C(=O)O)c3ccc(O)cc3)C2OC1 (centres undefined)
RHR [9]: 19 | MIC (Escherichia coli [10]): 0.2 µg/mL (≈ 0.408 µM)

CC(C)(O/N=C(/C(=O)N[C@H]1CN(C(=O)NS(C)(=O)=O)C1=O)c1csc(N)n1)C(=O)[O-].[K+]
MIC (Escherichia coli [11]): 0.8 µg/mL | MIC (Escherichia coli [12]): 1.6 µg/mL

O=C(Cc1cccs1)N[C@@H]1C(=O)N2C(C(=O)[O-])=C(C[n+]3ccccc3)CS[C@H]12 [CEPHALORIDINE]
RHR [13]: 100 | RHR [9]: 100 | RVmax (Escherichia coli [14]): 100 | RVmax [15]: 100

CO/N=C(/C(=O)N[C@@H]1C(=O)N(S(=O)(=O)[O-])[C@@H]1C)c1csc(N)n1.[K+]
RHR [13]: 6.4 | RHR [9]: 0.3 | MIC (Escherichia coli [16]): < 0.05 µg/mL | MIC (Klebsiella aerogenes [17]): 12.5 µg/mL | MIC (Klebsiella aerogenes [18]): 0.05 µg/mL | MIC (Escherichia coli [19]): 0.1 µg/mL

CC[C@@H]1[C@H](NC(=O)/C(=N/OC)c2csc(N)n2)C(=O)N1S(=O)(=O)[O-].[K+]
MIC (Escherichia coli [20]): 0.2 µg/mL | MIC (Escherichia coli [21]): 0.1 µg/mL | MIC (Klebsiella aerogenes [22]): 0.1 µg/mL | MIC (Klebsiella aerogenes [23]): 0.2 µg/mL

CC1(C)SC2[C@@H](NC(=O)Cc3ccccc3)C(=O)N2C1C(=O)O (some centres undefined)
RHR (Staphylococcus aureus [24]): 2.2 | MIC (Staphylococcus aureus [25]): 1.6 µg/mL (≈ 4.78 µM)

CO[C@]1(NC(C)=O)CN(S(=O)(=O)[O-])C1=O.[K+]
RVmax [15]: < 0.01 | remaining at 24 h [26]: < 1%

CO/N=C(\C(=O)N[C@@H]1C(=O)N2C(C(=O)O)=C(COC(C)=O)CSC12)c1csc(N)n1 (some centres undefined)
RHR [9]: 100 | MIC (Escherichia coli [27]): 0.1 µg/mL (≈ 0.22 µM)

CC(O)[C@@H]1C(=O)N2C(C(=O)O)=C(SCCN)SC12 (some centres undefined)
RVmax (Escherichia coli [28]): < 0.1 | MIC (Escherichia coli [29]): 25 µg/mL (≈ 86.1 µM) | MIC (Escherichia coli [10]): 12.5 µg/mL (≈ 43 µM)

Cn1nnnc1SCC1=C(C(=O)O)N2C(=O)[C@@H](NC(=O)CSCC#N)C2SC1 (some centres undefined)
MIC (Escherichia coli [7]): 12.5 µg/mL (≈ 28.3 µM) | MIC (Escherichia coli [30]): 0.8 µg/mL (≈ 1.81 µM)

CO/N=C(\C(=O)N[C@@H]1C(=O)N2C(C(=O)O)=C(COC(C)=O)C[S@+]([O-])C12)c1csc(N)n1 (some centres undefined)
RHR [9]: 0 | MIC (Escherichia coli [27]): 0.1 µg/mL (≈ 0.212 µM)

CO/N=C(/C(=O)N[C@@H]1C(=O)N(S(=O)(=O)[O-])[C@H]1C)c1csc(N)n1.[K+]
RHR [13]: 20 | RHR [9]: 1 | MIC (Escherichia coli [31]): 0.4 µg/mL | MIC (Escherichia coli [32]): 0.1 µg/mL | MIC (Klebsiella aerogenes [33]): 0.2 µg/mL | MIC (Klebsiella aerogenes [34]): 100 µg/mL

CCCO[C@@]1(NC(=O)CSCC#N)C(=O)N2C(C(=O)O)=C(CSc3nnnn3C)CSC21 (some centres undefined)
MIC (Escherichia coli [7]): 200 µg/mL (≈ 400 µM) | MIC (Escherichia coli [30]): > 200 µg/mL

CO[C@@]1(NC(=O)Cc2ccc(O)cc2)C(=O)N2C(C(=O)O)=C(CSc3nnnn3C)COC21 (some centres undefined)
MIC (Enterobacter cloacae [6]): 100 µg/mL (≈ 210 µM) | MIC (Escherichia coli [7]): 0.8 µg/mL (≈ 1.68 µM) | MIC (Escherichia coli [8]): 0.1 µg/mL (≈ 0.21 µM)

CO[C@@]1(NC(=O)CSCC#N)C(=O)N2C(C(=O)[O-])=C(CSc3nnnn3C)CS[C@@H]21.[Na+] [CEFMETAZOLE SODIUM]
MIC (Escherichia coli [7]): 0.8 µg/mL | MIC (Escherichia coli [30]): 0.8 µg/mL

CC(=O)NCCSC1=C(C(=O)O)N2C(=O)[C@H]([C@H](C)O)C2C1 (some centres undefined)
MIC (Escherichia coli [1]): 0.8 µg/mL (≈ 2.54 µM) | MIC (Escherichia coli [2]): 0.8 µg/mL (≈ 2.54 µM)

CC1=C(C(=O)O)N2C(=O)[C@@H](NC(=O)[C@@H](N)C3=CCC=CC3)C2SC1 (some centres undefined)
Zone reduction (Escherichia coli [35]): 12% | Zone reduction (Staphylococcus aureus [36]): 25%

CO/N=C(/C(=O)N[C@@H]1C(=O)N2C(C(=O)O)=C(CSc3nnnn3C)CSC12)c1csc(N)n1 (some centres undefined)
MIC (Enterobacter cloacae [37]): 1.6 µg/mL (≈ 3.13 µM)

Cn1nnnc1SCC1=C(C(=O)[O-])N2C(=O)[C@@H](NC(=O)[C@@H](NC(N)=O)c3ccco3)C2SC1.[Na+] (some centres undefined)
MIC (Enterobacter cloacae [37]): 0.6 µg/mL | MIC (Providencia rettgeri): 0.4 µg/mL
